System: MV-4-11 cells
Assay: Gene expression microarray analysis (Affymetrix PrimeView) and GSEA
Format: cell-based, human
Parameters: RFU PODN (11730768_x_at) / Fold change /veh PODN (11730768_x_at) / RFU LINC00158 (11744669_a_at) / Fold change /veh LINC00158 (11744669_a_at) / RFU DUSP10 (11751237_a_at) / Fold change /veh DUSP10 (11751237_a_at) / RFU ID3 (11757404_x_at) / Fold change /veh ID3 (11757404_x_at) / RFU PLEKHG5 (11737974_s_at) / Fold change /veh PLEKHG5 (11737974_s_at) / RFU LRRC4B (11730491_at) / Fold change /veh LRRC4B (11730491_at) / RFU GIMAP4 (11747438_a_at) / Fold change /veh GIMAP4 (11747438_a_at) / RFU KRT8 (11758183_x_at) / Fold change /veh KRT8 (11758183_x_at) / RFU CNN1 (11734310_a_at) / Fold change /veh CNN1 (11734310_a_at) / RFU VPS37D (11726825_at) / Fold change /veh VPS37D (11726825_at) / RFU C10orf10 (11716522_x_at) / Fold change /veh C10orf10 (11716522_x_at) / RFU KIR2DL2 /// KIR2DL4 /// KIR2DL5A /// KIR2DL5B /// KIR2DS1 /// KIR2DS2 /// KIR2DS3 /// KIR2DS4 /// KIR3DL3 /// KIR3DL3 /// KIR3DS1 (11738374_at) / Fold change /veh KIR2DL2 /// KIR2DL4 /// KIR2DL5A /// KIR2DL5B /// KIR2DS1 /// KIR2DS2 /// KIR2DS3 /// KIR2DS4 /// KIR3DL3 /// KIR3DL3 /// KIR3DS1 (11738374_at) / RFU C1QL1 (11718748_at) / Fold change /veh C1QL1 (11718748_at) / RFU TMPRSS4 (11747572_a_at) / Fold change /veh TMPRSS4 (11747572_a_at) / RFU HAMP (11756126_x_at) / Fold change /veh HAMP (11756126_x_at) / RFU RNFT2 (11725882_a_at) / Fold change /veh RNFT2 (11725882_a_at) / RFU NR4A2 (11747474_a_at) / Fold change /veh NR4A2 (11747474_a_at) / RFU ABCC12 (11746883_a_at) / Fold change /veh ABCC12 (11746883_a_at) / RFU TMEM136 (11760407_x_at) / Fold change /veh TMEM136 (11760407_x_at) / RFU CLDN22 /// WWC2 (11732394_at) / Fold change /veh CLDN22 /// WWC2 (11732394_at) / RFU HLA-DPB1 (11760878_x_at) / Fold change /veh HLA-DPB1 (11760878_x_at) / RFU SPINT1 (11716480_a_at) / Fold change /veh SPINT1 (11716480_a_at) / RFU GAP43 (11754022_s_at) / Fold change /veh GAP43 (11754022_s_at) / RFU A4GNT (11735810_at) / Fold change /veh A4GNT (11735810_at) / RFU PRB3 (11715151_x_at) / Fold change /veh PRB3 (11715151_x_at) / RFU TUBB4B (11761932_at) / Fold change /veh TUBB4B (11761932_at) / RFU CAPN14 (11732068_a_at) / Fold change /veh CAPN14 (11732068_a_at) / RFU TMCC2 (11721928_a_at) / Fold change /veh TMCC2 (11721928_a_at) / RFU IRGQ (11745062_a_at) / Fold change /veh IRGQ (11745062_a_at) / RFU FAM174B (11720279_a_at) / Fold change /veh FAM174B (11720279_a_at) / RFU TMPRSS4 (11748680_a_at) / Fold change /veh TMPRSS4 (11748680_a_at) / RFU FAM212B (11763350_a_at) / Fold change /veh FAM212B (11763350_a_at) / RFU PLEKHG5 (11743358_a_at) / Fold change /veh PLEKHG5 (11743358_a_at) / RFU ZSCAN30 (11745921_a_at) / Fold change /veh ZSCAN30 (11745921_a_at) / RFU CMKLR1 (11741424_a_at) / Fold change /veh CMKLR1 (11741424_a_at) / RFU LOC101060620 /// MAPK8IP1 (11723275_at) / Fold change /veh LOC101060620 /// MAPK8IP1 (11723275_at) / RFU SPTSSB (11747773_x_at) / Fold change /veh SPTSSB (11747773_x_at) / RFU PRSS12 (11739890_at) / Fold change /veh PRSS12 (11739890_at) / RFU BIN1 (11741810_x_at) / Fold change /veh BIN1 (11741810_x_at) / RFU WNT11 (11732464_a_at) / Fold change /veh WNT11 (11732464_a_at) / RFU C10orf10 (11716521_a_at) / Fold change /veh C10orf10 (11716521_a_at) / RFU C5orf56 (11738089_at) / Fold change /veh C5orf56 (11738089_at) / RFU CYB561 (11721691_x_at) / Fold change /veh CYB561 (11721691_x_at) / RFU ANKRD19P (11752326_a_at) / Fold change /veh ANKRD19P (11752326_a_at) / RFU OR2T12 /// OR2T33 /// OR2T8 (11738714_s_at) / Fold change /veh OR2T12 /// OR2T33 /// OR2T8 (11738714_s_at) / RFU VCAN (11748164_a_at) / Fold change /veh VCAN (11748164_a_at) / RFU JSRP1 (11732532_at) / Fold change /veh JSRP1 (11732532_at) / RFU KRTAP10-11 (11738290_x_at) / Fold change /veh KRTAP10-11 (11738290_x_at) / RFU MYO3A (11730013_a_at) / Fold change /veh MYO3A (11730013_a_at) / RFU EBF3 (11725865_a_at) / Fold change /veh EBF3 (11725865_a_at) / RFU CAMK2N1 (11719241_x_at) / Fold change /veh CAMK2N1 (11719241_x_at) / RFU C5orf56 (11738088_a_at) / Fold change /veh C5orf56 (11738088_a_at) / RFU OLFML3 (11715873_a_at) / Fold change /veh OLFML3 (11715873_a_at) / RFU LOC100653217 /// NTM (11731650_a_at) / Fold change /veh LOC100653217 /// NTM (11731650_a_at) / RFU MAPK11 (11762145_a_at) / Fold change /veh MAPK11 (11762145_a_at) / RFU FIZ1 (11724087_x_at) / Fold change /veh FIZ1 (11724087_x_at) / RFU OASL (11726364_x_at) / Fold change /veh OASL (11726364_x_at) / RFU SOX15 (11748057_x_at) / Fold change /veh SOX15 (11748057_x_at) / RFU CD79A (11719716_a_at) / Fold change /veh CD79A (11719716_a_at) / RFU HIST1H1D (11736915_at) / Fold change /veh HIST1H1D (11736915_at) / RFU CASKIN2 (11723855_a_at) / Fold change /veh CASKIN2 (11723855_a_at) / RFU LOC730098 (11760151_x_at) / Fold change /veh LOC730098 (11760151_x_at) / RFU OR4N2 (11742367_at) / Fold change /veh OR4N2 (11742367_at) / RFU PRRT2 (11749266_a_at) / Fold change /veh PRRT2 (11749266_a_at) / RFU SNX32 (11753110_a_at) / Fold change /veh SNX32 (11753110_a_at) / RFU CDHR5 (11726645_a_at) / Fold change /veh CDHR5 (11726645_a_at) / RFU RCAN1 (11760418_a_at) / Fold change /veh RCAN1 (11760418_a_at) / RFU FAM167A (11723789_a_at) / Fold change /veh FAM167A (11723789_a_at) / RFU FAM26E (11764081_at) / Fold change /veh FAM26E (11764081_at) / RFU ISYNA1 (11749810_s_at) / Fold change /veh ISYNA1 (11749810_s_at) / RFU ACY1 (11761880_at) / Fold change /veh ACY1 (11761880_at) / RFU 11764098_at / Fold change /veh 11764098_at / RFU SAMD14 (11745864_x_at) / Fold change /veh SAMD14 (11745864_x_at) / RFU NPB (11741838_a_at) / Fold change /veh NPB (11741838_a_at) / RFU TMPRSS6 (11731388_a_at) / Fold change /veh TMPRSS6 (11731388_a_at) / RFU KRTAP10-2 (11738614_at) / Fold change /veh KRTAP10-2 (11738614_at) / RFU ARHGAP8 /// PRR5-ARHGAP8 (11727945_x_at) / Fold change /veh ARHGAP8 /// PRR5-ARHGAP8 (11727945_x_at) / RFU KRTAP5-7 /// NADSYN1 (11734609_at) / Fold change /veh KRTAP5-7 /// NADSYN1 (11734609_at) / RFU RASL12 (11751679_a_at) / Fold change /veh RASL12 (11751679_a_at) / RFU CDKN2B (11736163_a_at) / Fold change /veh CDKN2B (11736163_a_at) / RFU PRF1 (11729649_at) / Fold change /veh PRF1 (11729649_at) / RFU, ZNF638 /// ZNF638-IT1 / Fold change vs veh, ZNF638 /// ZNF638-IT1 / RFU, PANK3 / Fold change vs veh, PANK3 / RFU, SH3YL1 / Fold change vs veh, SH3YL1 / RFU, ZEB2 / Fold change vs veh, ZEB2 / RFU, NRIP1 / Fold change vs veh, NRIP1 / RFU, PTTG1IP / Fold change vs veh, PTTG1IP / RFU, CAPN2 / Fold change vs veh, CAPN2 / RFU, MED14 / Fold change vs veh, MED14 / RFU, SNORA58 / Fold change vs veh, SNORA58 / RFU, C1orf63 / Fold change vs veh, C1orf63 / RFU, LRRFIP1 / Fold change vs veh, LRRFIP1 / RFU, NDUFAF7 / Fold change vs veh, NDUFAF7 / RFU, SLC12A2 / Fold change vs veh, SLC12A2 / RFU, IBTK / Fold change vs veh, IBTK / RFU, ESF1 / Fold change vs veh, ESF1 / Fold change vs veh, TMEM50B / RFU, TAOK1 / Fold change vs veh, TAOK1 / RFU, ACBD3 / Fold change vs veh, ACBD3 / RFU, TMA16 / Fold change vs veh, TMA16 / RFU, RWDD3 / Fold change vs veh, RWDD3 / RFU, BCAT1 / Fold change vs veh, BCAT1 / RFU, EDEM3 / Fold change vs veh, EDEM3 / RFU, TMEM33 / Fold change vs veh, TMEM33 / RFU, WDR75 / Fold change vs veh, WDR75 / RFU, AHCTF1 / Fold change vs veh, AHCTF1 / RFU, TFRC / Fold change vs veh, TFRC / RFU, ZDHHC17 / Fold change vs veh, ZDHHC17 / RFU, NOM1 / Fold change vs veh, NOM1 / RFU, ARL8B / Fold change vs veh, ARL8B / RFU, ZBTB11 / Fold change vs veh, ZBTB11 / RFU, TAMM41 / Fold change vs veh, TAMM41 / RFU, KIAA1704 /// LOC100996395 / Fold change vs veh, KIAA1704 /// LOC100996395 / RFU, ING1 / Fold change vs veh, ING1 / RFU, TRMT61B / Fold change vs veh, TRMT61B / RFU, FUBP3 / Fold change vs veh, FUBP3 / RFU, TP53 / Fold change vs veh, TP53 / RFU, TNKS2 / Fold change vs veh, TNKS2 / RFU, ZFP14 / Fold change vs veh, ZFP14 / RFU, ACTR2 / Fold change vs veh, ACTR2 / RFU, PPP3R1 / Fold change vs veh, PPP3R1 / RFU, PIK3R1 / Fold change vs veh, PIK3R1 / RFU, HNRNPA1 / Fold change vs veh, HNRNPA1 / RFU, RNF170 / Fold change vs veh, RNF170 / RFU, ZNF28 / Fold change vs veh, ZNF28 / RFU, RNGTT / Fold change vs veh, RNGTT / RFU, OGT / Fold change vs veh, OGT / RFU, BRD1 / Fold change vs veh, BRD1 / RFU, MARS / Fold change vs veh, MARS / RFU, ZNF655 / Fold change vs veh, ZNF655 / RFU, FAHD1 / Fold change vs veh, FAHD1 / RFU, BDP1 / Fold change vs veh, BDP1 / RFU, LRRCC1 / Fold change vs veh, LRRCC1 / RFU, ARID1A / Fold change vs veh, ARID1A / RFU, ZNF146 / Fold change vs veh, ZNF146 / RFU, ZNF330 / Fold change vs veh, ZNF330 / RFU, GPN3 / Fold change vs veh, GPN3 / RFU, C9orf123 / Fold change vs veh, C9orf123 / RFU, N4BP2L2 / Fold change vs veh, N4BP2L2 / RFU, ARFIP1 / Fold change vs veh, ARFIP1 / RFU, FAM179B / Fold change vs veh, FAM179B / RFU, BCL10 / Fold change vs veh, BCL10 / RFU, UHRF1BP1L / Fold change vs veh, UHRF1BP1L / RFU, BET1 / Fold change vs veh, BET1 / RFU, CNOT2 / Fold change vs veh, CNOT2 / RFU, ZNF268 / Fold change vs veh, ZNF268 / Fold change vs veh, ZNF507 / RFU, DGCR2 / Fold change vs veh, DGCR2 / RFU, WDSUB1 / Fold change vs veh, WDSUB1 / Fold change vs veh, HSP90B1 /// MIR3652 / RFU, ADSS / Fold change vs veh, ADSS / RFU, GK / Fold change vs veh, GK / RFU, ZNF148 / Fold change vs veh, ZNF148 / RFU, TAF9 / Fold change vs veh, TAF9 / RFU, SLC1A5 / Fold change vs veh, SLC1A5 / RFU, SLMO2 / Fold change vs veh, SLMO2 / RFU, ABCC4 / Fold change vs veh, ABCC4 / RFU, LOC101060439 /// RAP1B / Fold change vs veh, LOC101060439 /// RAP1B / RFU, RFX7 / Fold change vs veh, RFX7 / RFU, GTPBP10 / Fold change vs veh, GTPBP10 / RFU, CNEP1R1 / Fold change vs veh, CNEP1R1 / RFU, BIVM-ERCC5 /// ERCC5 / Fold change vs veh, BIVM-ERCC5 /// ERCC5 / RFU, ILF3 / Fold change vs veh, ILF3 / RFU 11762660_at / Fold change /veh 11762660_at / RFU VCAN (11757783_s_at) / Fold change /veh VCAN (11757783_s_at) / RFU DDX43 (11728927_at) / Fold change /veh DDX43 (11728927_at) / RFU KRT8 (11758188_x_at) / Fold change /veh KRT8 (11758188_x_at) / RFU NKD1 (11759106_at) / Fold change /veh NKD1 (11759106_at) / RFU SRD5A1 (11742802_a_at) / Fold change /veh SRD5A1 (11742802_a_at) / RFU TPSAB1 /// TPSB2 (11721975_s_at) / Fold change /veh TPSAB1 /// TPSB2 (11721975_s_at) / RFU GSTM3 (11746129_a_at) / Fold change /veh GSTM3 (11746129_a_at) / RFU IL23R (11737362_x_at) / Fold change /veh IL23R (11737362_x_at) / RFU TMEM51 (11727254_a_at) / Fold change /veh TMEM51 (11727254_a_at) / RFU PIWIL2 (11732686_x_at) / Fold change /veh PIWIL2 (11732686_x_at) / RFU ORM1 (11744905_x_at) / Fold change /veh ORM1 (11744905_x_at) / RFU CCDC152 (11743942_at) / Fold change /veh CCDC152 (11743942_at) / RFU ECM1 (11717891_a_at) / Fold change /veh ECM1 (11717891_a_at) / RFU IL23R (11748794_a_at) / Fold change /veh IL23R (11748794_a_at) / RFU TNFAIP8L3 (11732012_x_at) / Fold change /veh TNFAIP8L3 (11732012_x_at) / RFU MBOAT4 (11741988_at) / Fold change /veh MBOAT4 (11741988_at) / RFU 11764193_at / Fold change /veh 11764193_at / RFU TMEM53 (11763286_at) / Fold change /veh TMEM53 (11763286_at) / RFU MAGEB2 (11727129_at) / Fold change /veh MAGEB2 (11727129_at) / RFU TMEM200A (11744735_a_at) / Fold change /veh TMEM200A (11744735_a_at) / RFU CCDC152 (11751479_a_at) / Fold change /veh CCDC152 (11751479_a_at) / RFU FAM211A (11726209_a_at) / Fold change /veh FAM211A (11726209_a_at) / RFU RGS16 (11746705_a_at) / Fold change /veh RGS16 (11746705_a_at) / RFU VCAN (11755009_s_at) / Fold change /veh VCAN (11755009_s_at) / RFU RHOB (11743442_s_at) / Fold change /veh RHOB (11743442_s_at) / RFU RGS16 (11720943_a_at) / Fold change /veh RGS16 (11720943_a_at) / RFU RGS16 (11720944_at) / Fold change /veh RGS16 (11720944_at) / RFU, VPS4B / Fold change vs veh, VPS4B / RFU, CREB1 / Fold change vs veh, CREB1 / RFU, DNAJC13 / Fold change vs veh, DNAJC13 / RFU, GNAQ / Fold change vs veh, GNAQ / RFU, CDK5R1 / Fold change vs veh, CDK5R1 / RFU, ZRANB3 / Fold change vs veh, ZRANB3 / RFU, CUL4A / Fold change vs veh, CUL4A / RFU, CCNY / Fold change vs veh, CCNY / RFU, UFL1 / Fold change vs veh, UFL1 / RFU, COG3 / Fold change vs veh, COG3 / RFU, DIAPH2 / Fold change vs veh, DIAPH2 / RFU, SKA2 / Fold change vs veh, SKA2 / RFU, AFF3 / Fold change vs veh, AFF3 / RFU, LMF1 / Fold change vs veh, LMF1 / RFU, IPO11 / Fold change vs veh, IPO11 / RFU, DFFB / Fold change vs veh, DFFB / RFU, FOXP1 / Fold change vs veh, FOXP1 / RFU, CARD8 / Fold change vs veh, CARD8 / RFU, STRN3 / Fold change vs veh, STRN3 / RFU, ADK / Fold change vs veh, ADK / RFU, RASSF2 / Fold change vs veh, RASSF2 / RFU, WIPF1 / Fold change vs veh, WIPF1 / RFU, LARP1B / Fold change vs veh, LARP1B / RFU, RASA1 / Fold change vs veh, RASA1 / RFU, RB1 / Fold change vs veh, RB1 / RFU, PPFIA1 / Fold change vs veh, PPFIA1 / RFU, MAT2A / Fold change vs veh, MAT2A / RFU, CCT5 / Fold change vs veh, CCT5 / RFU, WDR92 / Fold change vs veh, WDR92 / RFU, CUX1 / Fold change vs veh, CUX1 / RFU, TTC7A / Fold change vs veh, TTC7A / RFU, TMEM135 / Fold change vs veh, TMEM135 / RFU, DEPTOR / Fold change vs veh, DEPTOR / RFU, CPM / Fold change vs veh, CPM / RFU, DNAJB6 / Fold change vs veh, DNAJB6 / RFU, CACNA2D3 / Fold change vs veh, CACNA2D3 / RFU, DTX4 / Fold change vs veh, DTX4 / RFU, TFCP2 / Fold change vs veh, TFCP2 / RFU, GMCL1 /// GMCL1P1 / Fold change vs veh, GMCL1 /// GMCL1P1 / RFU, AEBP2 / Fold change vs veh, AEBP2 / RFU, SNHG1 /// SNORD22 /// SNORD25 /// SNORD26 /// SNORD27 /// SNORD28 /// SNORD29 /// SNORD31 / Fold change vs veh, SNHG1 /// SNORD22 /// SNORD25 /// SNORD26 /// SNORD27 /// SNORD28 /// SNORD29 /// SNORD31 / Fold change (Aza/veh), C12orf56 (ProbeSet 11735607_a_at) / Fold change (ACY-1035/veh), C12orf56 (ProbeSet 11735607_a_at) / Fold change (Aza/veh), FGFR1OP (ProbeSet 11751329_s_at) / Fold change (ACY-1035/veh), FGFR1OP (ProbeSet 11751329_s_at) / Fold change (Aza/veh), VPS36 (ProbeSet 11739960_a_at) / Fold change (ACY-1035/veh), VPS36 (ProbeSet 11739960_a_at) / RFU SYPL1 (11715823_x_at) / Fold change /veh SYPL1 (11715823_x_at) / RFU IGFBP7 (11715501_s_at) / Fold change /veh IGFBP7 (11715501_s_at) / RFU REEP3 (11722064_at) / Fold change /veh REEP3 (11722064_at) / RFU IGLL1 (11728026_x_at) / Fold change /veh IGLL1 (11728026_x_at): dose or concentration left out as unconfirmed
Conditions: MV-4-11 cells, 48 hours

Structure (SMILES): Nc1ccc(-c2cccs2)cc1NC(=O)c1ccc2c(c1)cc(C1CC1)n2CCN1CCOCC1 [ACY-1035]
- RFU MBOAT4 (11741988_at): 8.81 RFU
